Laboratory results published in US20260035696A1, “COMBINATION TREATMENT FOR CANCER” (THE UNIVERSITY OF CHICAGO, priority 2022, published 2026).

Test system: IκBα phosphorylation and nuclear RELA in 3×KD BM-MDSCs
Experiment: Immunoblot of NF-κB signaling in 3×KD BM-MDSCs co-cultured with LPS
Assay type: cell-based, mouse
Details: 3×KD (Adrb2, Metrnl, Smpdl3b) BM-MDSCs, LPS 5 min
From the text: FIGS. 15A-15I show YTHDF2 degrades Adrb2, Metrnl, and Smpdl3b transcripts and thereby activates NF-κB signaling in MDSCs. (FIG. 15A) MDSCs were sorted from MC38 tumors in WT, WT+IR, Ythdf2-cKO, Ythdf2-cKO+IR mice and subjected to qPCR analysis of Adrb2, Metrnl and Smpdl3b mRNA level. (FIG. 15B) Graphs showing enrichment of Adrb2, Metrnl and Smpdl3b mRNA in the YTHDF2-immunoprecipitated RNA fraction of bone marrow-derived MDSCs, determined by RIP-qPCR. (FIG. 15C) MDSCs were sorted from bone marrow-derived cells from WT and Ythdf2-cKO mice and were treated with actinomycin D. mRNA was collected at indicated time points after treatment and mRNA levels of Adrb2, Metrnl and Smpdl3b were measured by RT-qPCR. […] Three days after IR, the number of tumor-infiltrating CD45.1^+CD11b^+Ly6C^hi cells was determined. […] The attached cells on the transwell membrane were visualized under a light microscope and quantified. […] Three days after IR, the number of tumor-infiltrating Ccr2^+CD11b^+Ly6C^hi cells was determined. […]
FIGS. 29A-29M show YTHDF2 degrades Adrb2, Metrnl, and Smpdl3b transcripts and thereby activates NF-κB signaling in MDSCs. […] P values were calculated by a nonparametric Wilcoxon-Mann-Whitney test. […] Metrnl and Smpdl3b mRNA in the YTHDF2-immunoprecipitated RNA fraction of bone marrow-derived MDSCs, determined by RIP-qPCR. […]

For `Cc1ccc(S(=O)(=O)/C=C/C#N)cc1` [BAY 11-7082], which “increase of IκBα phosphorylation and nuclear localization of RELA in knockdown MDSCs” value is on record?
Its value is “prevented this increase”.
